Laboratory results from the kinase profiling compilation of Christmann-Franck et al. (2016).
Blank lines part the entries; values can stand above or below the molecule they belong to.

Assays:
Experiment in all cases: radiometric filter-binding kinase assay
CHEK1 (human) = CHEK1 (human) (UniProt O14757)
JAK2 JH1 JH2 (human) = JAK2 JH1 JH2 (human) (UniProt O60674)
CDK2 CCNA2 (human) = CDK2 CCNA2 (human) (UniProt P20248+P24941)
YES1 (human) = YES1 (human) (UniProt P07947)
INSR (human) = INSR (human) (UniProt P06213)
Chain of INSR (human) (P06213 whole entry, looked up): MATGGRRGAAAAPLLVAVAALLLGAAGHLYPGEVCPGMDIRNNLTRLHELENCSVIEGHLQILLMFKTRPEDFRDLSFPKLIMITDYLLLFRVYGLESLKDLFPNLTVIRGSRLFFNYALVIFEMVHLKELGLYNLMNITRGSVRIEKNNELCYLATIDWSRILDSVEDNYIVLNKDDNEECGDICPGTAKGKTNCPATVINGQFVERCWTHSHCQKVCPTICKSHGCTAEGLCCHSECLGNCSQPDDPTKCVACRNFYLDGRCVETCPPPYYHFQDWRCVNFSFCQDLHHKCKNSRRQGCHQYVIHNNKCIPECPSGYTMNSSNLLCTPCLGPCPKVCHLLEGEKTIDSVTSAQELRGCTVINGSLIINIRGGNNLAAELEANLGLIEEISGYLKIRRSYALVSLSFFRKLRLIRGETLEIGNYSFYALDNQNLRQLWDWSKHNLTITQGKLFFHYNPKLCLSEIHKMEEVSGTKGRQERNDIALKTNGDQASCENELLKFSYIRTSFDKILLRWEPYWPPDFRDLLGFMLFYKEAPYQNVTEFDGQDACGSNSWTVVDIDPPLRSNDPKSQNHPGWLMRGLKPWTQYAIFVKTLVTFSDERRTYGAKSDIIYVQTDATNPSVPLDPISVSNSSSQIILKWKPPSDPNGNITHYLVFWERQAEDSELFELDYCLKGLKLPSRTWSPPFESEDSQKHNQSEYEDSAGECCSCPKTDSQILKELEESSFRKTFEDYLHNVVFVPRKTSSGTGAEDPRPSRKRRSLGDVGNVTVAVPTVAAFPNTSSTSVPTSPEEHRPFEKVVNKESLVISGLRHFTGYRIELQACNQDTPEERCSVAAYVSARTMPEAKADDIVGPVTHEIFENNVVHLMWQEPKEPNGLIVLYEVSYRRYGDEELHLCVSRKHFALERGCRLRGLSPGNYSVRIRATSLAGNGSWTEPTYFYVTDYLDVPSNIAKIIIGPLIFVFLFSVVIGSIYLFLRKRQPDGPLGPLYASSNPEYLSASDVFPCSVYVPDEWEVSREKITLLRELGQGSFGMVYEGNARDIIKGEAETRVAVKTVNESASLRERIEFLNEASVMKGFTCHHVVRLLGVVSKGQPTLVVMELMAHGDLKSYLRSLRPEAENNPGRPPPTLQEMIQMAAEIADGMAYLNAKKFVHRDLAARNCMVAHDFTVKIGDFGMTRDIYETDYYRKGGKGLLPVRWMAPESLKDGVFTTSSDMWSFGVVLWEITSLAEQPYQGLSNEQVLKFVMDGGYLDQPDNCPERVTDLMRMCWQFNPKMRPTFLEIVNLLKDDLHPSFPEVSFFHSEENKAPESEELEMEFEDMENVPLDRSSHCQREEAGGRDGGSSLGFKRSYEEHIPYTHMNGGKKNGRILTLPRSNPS

CAMKK2 (human) = CAMKK2 (human) (UniProt Q96RR4)
MAP2K1 (human) = MAP2K1 (human) (UniProt Q02750)
MAP3K11 (human) = MAP3K11 (human) (UniProt Q16584)
Chain of MAP3K11 (human) (Q16584 whole entry, looked up): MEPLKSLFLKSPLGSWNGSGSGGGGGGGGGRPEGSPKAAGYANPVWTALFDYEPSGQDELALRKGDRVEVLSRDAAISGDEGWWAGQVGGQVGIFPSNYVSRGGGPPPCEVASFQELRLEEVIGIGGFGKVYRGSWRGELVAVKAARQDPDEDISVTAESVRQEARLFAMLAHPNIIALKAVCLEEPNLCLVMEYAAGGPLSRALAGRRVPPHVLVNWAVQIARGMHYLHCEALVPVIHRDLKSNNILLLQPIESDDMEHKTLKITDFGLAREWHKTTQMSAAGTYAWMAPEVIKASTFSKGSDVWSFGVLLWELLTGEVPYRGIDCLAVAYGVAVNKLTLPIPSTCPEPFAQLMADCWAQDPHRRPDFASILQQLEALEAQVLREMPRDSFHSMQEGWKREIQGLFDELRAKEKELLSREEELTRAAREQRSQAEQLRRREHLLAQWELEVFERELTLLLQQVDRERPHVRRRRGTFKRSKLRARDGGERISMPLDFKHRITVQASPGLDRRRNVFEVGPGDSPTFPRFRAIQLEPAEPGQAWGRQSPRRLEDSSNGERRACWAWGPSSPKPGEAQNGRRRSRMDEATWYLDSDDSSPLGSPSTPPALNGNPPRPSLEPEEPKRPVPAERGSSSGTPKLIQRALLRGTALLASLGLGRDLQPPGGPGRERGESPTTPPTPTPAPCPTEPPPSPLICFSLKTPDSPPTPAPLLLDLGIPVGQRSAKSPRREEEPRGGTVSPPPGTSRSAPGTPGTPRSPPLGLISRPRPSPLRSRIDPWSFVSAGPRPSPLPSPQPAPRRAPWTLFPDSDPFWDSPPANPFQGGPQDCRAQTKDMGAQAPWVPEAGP

RIPK2 (human) = RIPK2 (human) (UniProt O43353)
PAK4 (human) = PAK4 (human) (UniProt O96013)
INSRR (human) = INSRR (human) (UniProt P14616)
DYRK1A (human) = DYRK1A (human) (UniProt Q13627)
AURKB (human) = AURKB (human) (UniProt Q96GD4)
MINK1 (human) = MINK1 (human) (UniProt Q8N4C8)
[1] = system: AKT2 (human), P31751 [S474D]
SYK (human) = SYK (human) (UniProt P43405)
MAPK13 (human) = MAPK13 (human) (UniProt O15264)
Chain of MAPK13 (human) (O15264 whole entry, looked up): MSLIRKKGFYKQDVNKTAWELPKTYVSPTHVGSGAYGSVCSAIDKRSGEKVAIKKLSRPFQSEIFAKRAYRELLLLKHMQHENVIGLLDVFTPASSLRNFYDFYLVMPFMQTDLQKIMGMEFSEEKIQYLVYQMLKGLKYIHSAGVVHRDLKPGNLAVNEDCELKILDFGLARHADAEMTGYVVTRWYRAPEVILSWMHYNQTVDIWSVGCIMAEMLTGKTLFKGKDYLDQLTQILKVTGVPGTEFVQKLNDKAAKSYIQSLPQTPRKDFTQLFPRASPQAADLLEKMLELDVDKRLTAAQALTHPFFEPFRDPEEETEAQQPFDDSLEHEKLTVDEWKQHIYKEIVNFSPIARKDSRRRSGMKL

IGF1R (human) = IGF1R (human) (UniProt P08069)
MARK4 (human) = MARK4 (human) (UniProt Q96L34)
PRKCZ (human) = PRKCZ (human) (UniProt Q05513)
CaMK1 (human) = CaMK1 (human) (UniProt Q14012)
Chain of CaMK1 (human) (Q14012 whole entry, looked up): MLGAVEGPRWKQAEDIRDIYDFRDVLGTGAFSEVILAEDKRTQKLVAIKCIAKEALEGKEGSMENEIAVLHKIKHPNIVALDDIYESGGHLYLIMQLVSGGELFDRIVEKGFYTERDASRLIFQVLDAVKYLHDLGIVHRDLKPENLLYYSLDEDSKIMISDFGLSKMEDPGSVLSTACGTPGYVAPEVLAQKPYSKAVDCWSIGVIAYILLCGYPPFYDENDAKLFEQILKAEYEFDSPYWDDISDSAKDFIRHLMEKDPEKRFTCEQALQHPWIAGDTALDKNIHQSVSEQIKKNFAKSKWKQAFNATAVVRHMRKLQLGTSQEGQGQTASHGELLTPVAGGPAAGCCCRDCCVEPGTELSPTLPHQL

PRKAA1 or PRKAA2 (rat) = conditions: accession and sequence are those of the human protein
CSNK2A1 (human) = CSNK2A1 (human) (UniProt P68400)
EPHB3 (human) = EPHB3 (human) (UniProt P54753)
NUAK1 (human) = NUAK1 (human) (UniProt O60285)
Chain of NUAK1 (human) (O60285 whole entry, looked up): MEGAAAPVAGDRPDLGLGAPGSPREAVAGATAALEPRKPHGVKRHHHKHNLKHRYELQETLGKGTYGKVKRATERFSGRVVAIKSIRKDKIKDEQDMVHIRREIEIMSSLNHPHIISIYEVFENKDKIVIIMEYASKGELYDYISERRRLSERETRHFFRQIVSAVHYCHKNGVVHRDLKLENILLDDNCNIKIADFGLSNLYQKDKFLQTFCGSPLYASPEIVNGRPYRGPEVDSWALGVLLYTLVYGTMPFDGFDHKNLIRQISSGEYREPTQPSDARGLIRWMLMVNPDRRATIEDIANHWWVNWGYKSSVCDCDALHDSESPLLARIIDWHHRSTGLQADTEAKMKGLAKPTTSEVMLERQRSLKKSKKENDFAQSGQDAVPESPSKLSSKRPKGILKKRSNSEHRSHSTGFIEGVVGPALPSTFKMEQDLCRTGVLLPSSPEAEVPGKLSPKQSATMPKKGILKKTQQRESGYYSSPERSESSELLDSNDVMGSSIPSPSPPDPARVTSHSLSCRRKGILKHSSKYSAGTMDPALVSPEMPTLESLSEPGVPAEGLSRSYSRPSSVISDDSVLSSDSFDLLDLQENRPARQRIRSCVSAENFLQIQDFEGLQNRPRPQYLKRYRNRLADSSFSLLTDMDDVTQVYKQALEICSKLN

PIM2 (human) = PIM2 (human) (UniProt Q9P1W9)
Chain of PIM2 (human) (Q9P1W9 whole entry, looked up): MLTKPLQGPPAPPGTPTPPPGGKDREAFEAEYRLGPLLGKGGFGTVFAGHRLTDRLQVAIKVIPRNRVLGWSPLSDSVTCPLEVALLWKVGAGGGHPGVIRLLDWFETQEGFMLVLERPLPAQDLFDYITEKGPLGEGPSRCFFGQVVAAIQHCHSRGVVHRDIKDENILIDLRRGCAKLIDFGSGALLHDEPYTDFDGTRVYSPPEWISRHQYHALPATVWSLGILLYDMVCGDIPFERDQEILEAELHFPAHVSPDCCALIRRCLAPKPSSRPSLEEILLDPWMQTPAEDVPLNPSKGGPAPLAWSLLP

MARK3 (human) = MARK3 (human) (UniProt P27448)
PRKACA (human) = PRKACA (human) (UniProt P17612)
MAPK10 (human) = MAPK10 (human) (UniProt P53779)
MAP3K9 (human) = MAP3K9 (human) (UniProt P80192)
NTRK1 (human) = NTRK1 (human) (UniProt P04629)
PHKG1 (human) = PHKG1 (human) (UniProt Q16816)
MKNK1 (human) = MKNK1 (human) (UniProt Q9BUB5)
Chain of MKNK1 (human) (Q9BUB5 whole entry, looked up): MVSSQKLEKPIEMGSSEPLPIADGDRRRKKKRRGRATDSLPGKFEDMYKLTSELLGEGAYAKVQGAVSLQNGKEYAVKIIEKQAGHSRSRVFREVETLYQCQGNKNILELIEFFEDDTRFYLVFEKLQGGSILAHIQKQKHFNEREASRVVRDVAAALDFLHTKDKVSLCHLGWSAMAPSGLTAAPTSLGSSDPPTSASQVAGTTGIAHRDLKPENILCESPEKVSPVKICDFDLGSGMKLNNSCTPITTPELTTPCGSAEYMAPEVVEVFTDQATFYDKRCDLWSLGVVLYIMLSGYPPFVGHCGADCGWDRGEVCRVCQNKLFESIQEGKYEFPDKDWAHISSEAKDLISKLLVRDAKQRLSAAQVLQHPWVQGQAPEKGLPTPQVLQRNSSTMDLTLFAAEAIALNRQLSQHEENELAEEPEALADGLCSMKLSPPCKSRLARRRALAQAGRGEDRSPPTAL

MST4 (human) = MST4 (human) (UniProt Q9P289)
SRC (human) = SRC (human) (UniProt P12931)
LCK (mouse) = conditions: accession and sequence are those of the human protein

Chain of YES1 (human) (P07947 whole entry, looked up): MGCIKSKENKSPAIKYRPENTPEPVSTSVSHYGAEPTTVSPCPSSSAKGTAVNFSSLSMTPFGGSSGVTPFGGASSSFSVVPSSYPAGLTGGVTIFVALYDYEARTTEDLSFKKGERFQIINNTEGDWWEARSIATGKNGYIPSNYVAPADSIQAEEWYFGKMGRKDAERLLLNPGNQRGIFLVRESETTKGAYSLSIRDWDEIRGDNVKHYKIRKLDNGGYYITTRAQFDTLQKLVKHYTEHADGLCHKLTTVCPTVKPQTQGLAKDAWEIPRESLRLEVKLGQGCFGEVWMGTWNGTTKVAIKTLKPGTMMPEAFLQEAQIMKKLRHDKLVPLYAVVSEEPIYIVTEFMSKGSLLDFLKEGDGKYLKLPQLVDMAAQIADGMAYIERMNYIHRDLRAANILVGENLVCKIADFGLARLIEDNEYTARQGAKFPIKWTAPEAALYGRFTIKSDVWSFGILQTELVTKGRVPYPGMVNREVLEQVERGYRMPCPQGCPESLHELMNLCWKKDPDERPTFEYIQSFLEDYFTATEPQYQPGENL

residual activity (CHEK1 (human); compound 0.1 µM): 102%
residual activity (CHEK1 (human); compound 1.0 µM): 87%
residual activity (JAK2 JH1 JH2 (human); compound 0.1 µM): 100%
residual activity (JAK2 JH1 JH2 (human); compound 1.0 µM): 94%
residual activity (CDK2 CCNA2 (human); compound 0.1 µM): 107%
residual activity (CDK2 CCNA2 (human); compound 1.0 µM): 92%
residual activity (YES1 (human); compound 0.1 µM): 87%
residual activity (YES1 (human); compound 1.0 µM): 39%
residual activity (INSR (human); compound 0.1 µM): 102%
residual activity (INSR (human); compound 1.0 µM): 80%
residual activity (CAMKK2 (human); compound 1.0 µM): 63%
residual activity (MAP2K1 (human); compound 0.1 µM): 107%
residual activity (MAP2K1 (human); compound 1.0 µM): 96%
residual activity (MAP3K11 (human); compound 0.1 µM): 95%
residual activity (MAP3K11 (human); compound 1.0 µM): 94%
residual activity (RIPK2 (human); compound 0.1 µM): 82%
residual activity (RIPK2 (human); compound 1.0 µM): 49%
residual activity (PAK4 (human); compound 1.0 µM): 78%
residual activity (INSRR (human); compound 0.1 µM): 93%
residual activity (DYRK1A (human); compound 0.1 µM): 98%
residual activity (DYRK1A (human); compound 1.0 µM): 84%
residual activity (AURKB (human); compound 0.1 µM): 87%
residual activity (AURKB (human); compound 1.0 µM): 86%
residual activity (MINK1 (human); compound 0.1 µM): 94%
residual activity (MINK1 (human); compound 1.0 µM): 78%
residual activity ([1]; compound 0.1 µM): 99%
residual activity ([1]; compound 1.0 µM): 91%
residual activity (SYK (human); compound 0.1 µM): 103%
residual activity (SYK (human); compound 1.0 µM): 88%
residual activity (MAPK13 (human); compound 0.1 µM): 96%
residual activity (MAPK13 (human); compound 1.0 µM): 80%
residual activity (IGF1R (human); compound 1.0 µM): 87%
residual activity (MARK4 (human); compound 0.1 µM): 101%
residual activity (MARK4 (human); compound 1.0 µM): 84%
residual activity (PRKCZ (human); compound 0.1 µM): 116%
residual activity (PRKCZ (human); compound 1.0 µM): 89%
residual activity (CaMK1 (human); compound 0.1 µM): 92%
residual activity (CaMK1 (human); compound 1.0 µM): 86%
residual activity (PRKAA1 or PRKAA2 (rat); compound 0.1 µM): 101%
residual activity (PRKAA1 or PRKAA2 (rat); compound 1.0 µM): 77%
residual activity (CSNK2A1 (human); compound 0.1 µM): 93%
residual activity (CSNK2A1 (human); compound 1.0 µM): 77%
residual activity (EPHB3 (human); compound 1.0 µM): 105%
residual activity (NUAK1 (human); compound 0.1 µM): 79%
residual activity (NUAK1 (human); compound 1.0 µM): 49%
residual activity (PIM2 (human); compound 0.1 µM): 104%
residual activity (PIM2 (human); compound 1.0 µM): 99%
residual activity (MARK3 (human); compound 0.1 µM): 92%
residual activity (MARK3 (human); compound 1.0 µM): 93%
residual activity (PRKACA (human); compound 0.1 µM): 105%
residual activity (PRKACA (human); compound 1.0 µM): 93%
residual activity (MAPK10 (human); compound 0.1 µM): 14%
residual activity (MAPK10 (human); compound 1.0 µM): 13%
residual activity (MAP3K9 (human); compound 0.1 µM): 98%
residual activity (MAP3K9 (human); compound 1.0 µM): 88%
residual activity (NTRK1 (human); compound 1.0 µM): 92%
residual activity (PHKG1 (human); compound 0.1 µM): 85%
residual activity (PHKG1 (human); compound 1.0 µM): 86%
residual activity (MKNK1 (human); compound 1.0 µM): 88%
residual activity (MST4 (human); compound 0.1 µM): 96%
residual activity (MST4 (human); compound 1.0 µM): 79%
residual activity (SRC (human); compound 0.1 µM): 85%
residual activity (SRC (human); compound 1.0 µM): 50%
residual activity (LCK (mouse); compound 0.1 µM): 96%
residual activity (LCK (mouse); compound 1.0 µM): 92%
Structure (SMILES): Cc1cc(NC(=O)c2cccc(NC(=O)/C=C/CN(C)C)c2)ccc1Nc1nccc(-c2cccnc2)n1

residual activity (CHEK1 (human); compound 1.0 µM): 92%
residual activity (CHEK1 (human); compound 10.0 µM): 32%
residual activity (JAK2 JH1 JH2 (human); compound 1.0 µM): 91%
residual activity (JAK2 JH1 JH2 (human); compound 10.0 µM): 13%
residual activity (CDK2 CCNA2 (human); compound 1.0 µM): 89%
residual activity (CDK2 CCNA2 (human); compound 10.0 µM): 32%
residual activity (YES1 (human); compound 1.0 µM): 42%
residual activity (YES1 (human); compound 10.0 µM): 9%
residual activity (INSR (human); compound 1.0 µM): 86%
residual activity (INSR (human); compound 10.0 µM): 62%
residual activity (CAMKK2 (human); compound 1.0 µM): 72%
residual activity (CAMKK2 (human); compound 10.0 µM): 61%
residual activity (MAP2K1 (human); compound 1.0 µM): 84%
residual activity (MAP2K1 (human); compound 10.0 µM): 24%
residual activity (MAP3K11 (human); compound 1.0 µM): 62%
residual activity (MAP3K11 (human); compound 10.0 µM): 16%
residual activity (RIPK2 (human); compound 1.0 µM): 83%
residual activity (RIPK2 (human); compound 10.0 µM): 7%
residual activity (PAK4 (human); compound 1.0 µM): 50%
residual activity (PAK4 (human); compound 10.0 µM): 38%
residual activity (INSRR (human); compound 1.0 µM): 76%
residual activity (INSRR (human); compound 10.0 µM): 21%
residual activity (DYRK1A (human); compound 1.0 µM): 71%
residual activity (DYRK1A (human); compound 10.0 µM): 3%
residual activity (AURKB (human); compound 1.0 µM): 62%
residual activity (AURKB (human); compound 10.0 µM): 8%
residual activity (MINK1 (human); compound 1.0 µM): 56%
residual activity (MINK1 (human); compound 10.0 µM): 10%
residual activity ([1]; compound 1.0 µM): 21%
residual activity ([1]; compound 10.0 µM): 1%
residual activity (SYK (human); compound 1.0 µM): 89%
residual activity (SYK (human); compound 10.0 µM): 93%
residual activity (MAPK13 (human); compound 1.0 µM): 96%
residual activity (MAPK13 (human); compound 10.0 µM): 97%
residual activity (IGF1R (human); compound 1.0 µM): 96%
residual activity (IGF1R (human); compound 10.0 µM): 43%
residual activity (MARK4 (human); compound 1.0 µM): 34%
residual activity (MARK4 (human); compound 10.0 µM): 20%
residual activity (PRKCZ (human); compound 1.0 µM): 62%
residual activity (PRKCZ (human); compound 10.0 µM): 20%
residual activity (CaMK1 (human); compound 1.0 µM): 49%
residual activity (CaMK1 (human); compound 10.0 µM): 19%
residual activity (PRKAA1 or PRKAA2 (rat); compound 1.0 µM): 73%
residual activity (PRKAA1 or PRKAA2 (rat); compound 10.0 µM): 9%
residual activity (CSNK2A1 (human); compound 1.0 µM): 46%
residual activity (CSNK2A1 (human); compound 10.0 µM): 7%
residual activity (EPHB3 (human); compound 1.0 µM): 93%
residual activity (EPHB3 (human); compound 10.0 µM): 61%
residual activity (NUAK1 (human); compound 1.0 µM): 33%
residual activity (NUAK1 (human); compound 10.0 µM): 12%
residual activity (PIM2 (human); compound 1.0 µM): 74%
residual activity (PIM2 (human); compound 10.0 µM): 11%
residual activity (MARK3 (human); compound 1.0 µM): 51%
residual activity (MARK3 (human); compound 10.0 µM): 6%
residual activity (PRKACA (human); compound 1.0 µM): 109%
residual activity (PRKACA (human); compound 10.0 µM): 79%
residual activity (MAPK10 (human); compound 1.0 µM): 107%
residual activity (MAPK10 (human); compound 10.0 µM): 89%
residual activity (MAP3K9 (human); compound 1.0 µM): 100%
residual activity (MAP3K9 (human); compound 10.0 µM): 24%
residual activity (NTRK1 (human); compound 1.0 µM): 92%
residual activity (NTRK1 (human); compound 10.0 µM): 29%
residual activity (PHKG1 (human); compound 1.0 µM): 98%
residual activity (PHKG1 (human); compound 10.0 µM): 2%
residual activity (MKNK1 (human); compound 1.0 µM): 61%
residual activity (MKNK1 (human); compound 10.0 µM): 12%
residual activity (MST4 (human); compound 1.0 µM): 87%
residual activity (MST4 (human); compound 10.0 µM): 58%
residual activity (SRC (human); compound 1.0 µM): 38%
residual activity (SRC (human); compound 10.0 µM): 25%
residual activity (LCK (mouse); compound 1.0 µM): 102%
residual activity (LCK (mouse); compound 10.0 µM): 95%
Structure (SMILES): O=c1c(O)c(-c2ccc(O)c(O)c2)oc2cc(O)c(O)c(O)c12
